Experimental data published in US20090081775A1, “Microscope system and screening method for drugs, physical therapies and biohazards” (Stiftesen Unversitetsforskning Bergen, priority 2005, published 2009).
“And” between values parts separate entries of the source, which are not always exact repeats. Equal values may be shown once.

System: PC12 cells
Assay: Segmentation of WGA stained PC12 cells treated with thymidine (cell size by automated 3D segmentation)
Type: cell-based, rat
Description: PC12 and NRK cells were cultured in DMEM supplemented with 10% fetal calf serum and 5% horse serum. For high-resolution fluorescence microscopy and light microscope analysis, PC 12 cells were plated in LabTek™ chambered swell cover glasses (Nalge Nunc Int., Wiesbaden, Germany). Two hours after plating, the cells were stained with two dyes. For the experiments in which the effect of thymidine on cellular size and morphology was investigated, PC12 cells were plated on LabTek™ chambered swell cover glasses. 24 hours after plating, fresh growth medium containing 4 mM thymidine (Sigma) was added to the cells. In the control condition, fresh growth medium without thymidine was used. 24 hours afterwards cells were washed once with prewarmed fresh growth medium and grown further in growth medium without thymidine. […] To specifically display cell borders, cells were stained with wheat germ agglutinin (WGA) conjugated to either AlexaFluor™488 or AlexaFluor™594 (Invitrogen). WGA-AlexaFluor™594 is a lectin which binds glycogenfugates like N-acetylglucosamine and therefore stains biological membranes efficiently. CellTracker™ (CellTracker™, Molecular Probes Inc., Eugene, Oreg., USA) passes freely through cell membranes, but once inside a cell, it is transformed into cell-impermeant reaction products and is retained in living cells through several generations. […]
High resolution, […] fluorescence microscopy was performed with an Olympus IX70 microscope (Olympus Optical Co. Europa GmbH, Hamburg) or a Zeiss Axiovert 200M (Bergman A S, Lilleström, Norway) both equipped with 100× oil-immersion objectives, monochromator-based illumination systems (T.I.L.L. Photonics GmbH, Martinsried, Germany), tripleband filtersets DAPI/FITC/TRITC F61-020 (AHF Analysetechnik AG, Tübingen, Germany) and piezo z-steppers (Physik Instrumente GmbH & Co., Karlsruhe, Germany). […] With both the wide-field and confocal imaging setups, WGA-stained cells were analyzed in 3D by acquiring single focal planes 300 to 400 nm apart from each other in the z-direction spanning the whole cellular volume. […]

[1] = 4 mM thymidine for 24 hours, then 24 hours without, mid plane 2D, mean and SEM, three experiments, listed as tymidine

With Cc1cn([C@H]2C[C@H](O)[C@@H](CO)O2)c(=O)[nH]c1=O [thymidine] the “Dmaj (+): mean major axis length, treated group” value [1] was 15.26 + 0.40 μm and 16.79 + 0.32 μm and 15.83 + 0.25 μm, the “Dmin (+): mean minor axis length, treated group” value [1] was 9.98 + 0.32 μm and 9.21 + 0.19 μm and 9.01 + 0.18 μm and the “mean size of a cell treated with thymidine compared to a control group” value (conclusion from three experiments) was “increase”.
